A short description of experiment [1]: Induction of anti-CD3/CD28 antibodies-stimulated human T cell activation at 1 uM assessed fold increase in IL-2 secretion measured by ELISA assay. It counts as functional, T cell line. For orientation: ELISA stands for enzyme-linked immunosorbent assay.
The nature of experiment [2]: Induction of anti-CD3/CD28 antibodies-stimulated human T cell activation at 0.3 uM assessed fold increase in CD25 expression measured by ELISA assay. It is filed as functional, T cell line.
Experiment [3] can be described thus: Induction of anti-CD3/CD28 antibodies-stimulated human T cell activation at 0.3 uM assessed fold increase in IL-2 secretion measured by ELISA assay. It is filed as functional, T cell line.
Experiment [4] is described as follows: Induction of anti-CD3 antibodies-stimulated human T cell activation at 1 uM assessed fold increase in IL-2 secretion measured by ELISA assay. Note: reference of the scale not given here. It is filed as functional, T cell line.
The nature of experiment [5]: Induction of anti-CD3 antibodies-stimulated human T cell activation at 1 uM assessed fold increase in CD25 expression measured by ELISA assay. Note: reference of the scale not given here. It is filed as functional, T cell line.
A short description of experiment [6]: Induction of anti-CD3/CD28 antibodies-stimulated human T cell activation at 1 uM assessed fold increase in CD25 expression measured by ELISA assay. It counts as functional, T cell line.
Experiment [7] deals with E3 ubiquitin-protein ligase CBL-B (Homo sapiens, UniProt Q13191). Put plainly: Inhibition of N-terminal Avi-tagged human CBL-B (36 to 427 residues) incubated with 60 nM Src kinase for 1.5 hrs followed by incubation with fluorescently labeled UbcH5B-Ub for 1 hr and measured by TR-FRET assay. It is filed as single protein. On the technique in general: TR-FRET usually uses a lanthanide donor and a delayed reading to cut background.

Where only a bound is given, the exact number is not on record here.

Chain of E3 ubiquitin-protein ligase CBL-B (Q13191 whole entry, the tested form may be a part): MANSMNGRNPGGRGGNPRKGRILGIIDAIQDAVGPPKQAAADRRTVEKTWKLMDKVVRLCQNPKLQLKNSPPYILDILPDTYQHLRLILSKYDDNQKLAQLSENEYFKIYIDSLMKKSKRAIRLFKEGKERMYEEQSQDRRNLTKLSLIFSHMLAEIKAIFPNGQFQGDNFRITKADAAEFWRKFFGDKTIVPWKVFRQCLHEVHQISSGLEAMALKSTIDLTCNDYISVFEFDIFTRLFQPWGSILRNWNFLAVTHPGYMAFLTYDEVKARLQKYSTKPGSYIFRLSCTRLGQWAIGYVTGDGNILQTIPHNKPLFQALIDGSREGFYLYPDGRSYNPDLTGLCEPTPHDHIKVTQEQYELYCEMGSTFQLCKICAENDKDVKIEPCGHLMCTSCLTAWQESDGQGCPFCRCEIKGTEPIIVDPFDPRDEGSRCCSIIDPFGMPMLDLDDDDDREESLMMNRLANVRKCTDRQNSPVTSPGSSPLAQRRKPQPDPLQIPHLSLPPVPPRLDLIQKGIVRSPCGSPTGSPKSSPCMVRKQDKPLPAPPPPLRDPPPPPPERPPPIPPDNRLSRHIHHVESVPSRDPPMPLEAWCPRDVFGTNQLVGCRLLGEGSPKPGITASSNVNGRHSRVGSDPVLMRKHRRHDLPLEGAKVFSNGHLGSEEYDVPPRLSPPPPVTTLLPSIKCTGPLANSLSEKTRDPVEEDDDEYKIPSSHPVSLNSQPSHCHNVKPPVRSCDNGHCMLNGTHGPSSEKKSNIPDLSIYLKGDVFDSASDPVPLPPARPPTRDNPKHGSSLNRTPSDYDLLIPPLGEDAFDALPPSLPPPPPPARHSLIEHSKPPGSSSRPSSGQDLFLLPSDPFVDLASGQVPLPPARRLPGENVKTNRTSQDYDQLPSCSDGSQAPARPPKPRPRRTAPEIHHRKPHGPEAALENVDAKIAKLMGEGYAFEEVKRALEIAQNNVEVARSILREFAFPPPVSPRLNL

For the compound `C[C@H]1CN(C)CCN1c1cc2c(c(C(F)(F)F)c1)CN(c1cccc(C3(Cc4nncn4C)COC3)c1)C2=O`, the “fold change (FC)” value is reported as “>=7.5” in experiment [1]; 1.01 in experiment [2]; 5 in experiment [3]; “>=0.201” in experiment [4]; “>=1.001” in experiment [5]; 1.31 in experiment [6]. In experiment [7], the IC50 was < 0.1 µM.

Consider `Cc1cc(C(=O)Nc2cccc(C3(C(F)(F)c4nncn4C)COC3)c2)nc(C2CC2)n1`, for which the “fold change (FC)” value amounted to 5 in experiment [1]; 1.01 in experiment [2]; 2.51 in experiment [3]; 0.101 in experiment [4]; 0.801 in experiment [5]; 1.31 in experiment [6]. For the same compound, the IC50 in experiment [7] is < 0.1 µM.

Turning to `Cn1cnnc1CC1(c2cccc(N3Cc4c(cc(CN5Cc6cccc(F)c6C5)cc4C(F)(F)F)C3=O)c2)COC1`, the “fold change (FC)” value in experiment [1] was “>=7.5”; in experiment [2], 1.31; in experiment [3] it was 2.51; in experiment [4], “>=0.201”; in experiment [5], “>=1.001”; in experiment [6] it was 1.31. Also, in experiment [7], the IC50 is < 0.1 µM.

`Cn1cnnc1CC1(c2cccc(N3Cc4c(cc(CN5CCCC6CC65)cc4C(F)(F)F)C3=O)c2)COC1` (centres undefined): the “fold change (FC)” value is recorded as “>=7.5” in experiment [1]; 1.01 in experiment [2]; “>=7.5” in experiment [3]; “>=0.201” in experiment [4]; “>=1.001” in experiment [5]; 1.01 in experiment [6]. Further, the IC50 in experiment [7] is < 0.1 µM.

Take `C[C@@H](c1cc2c(c(C(F)(F)F)c1)CN(c1cccc(C3(Cc4nncn4C)COC3)c1)C2=O)N1CCC2(CC1)CC2`: the “fold change (FC)” value in experiment [1] was “>=7.5”; in experiment [2] it was 1.01; in experiment [3], “>=7.5”; in experiment [4], “>=0.201”; in experiment [5] it was “>=1.001”; in experiment [6], 1.01. In experiment [7], the concentration for half-maximal inhibition (IC50) was < 0.1 µM.

As for `CC(c1cc2c(c(C3CC3)n1)CN(c1cccc(C3(Cc4nncn4C)COC3)c1)C2=O)N1CC2(CC2)C1` (centres undefined), the “fold change (FC)” value in experiment [1] is recorded as 2.51; in experiment [2] it was 1.01; in experiment [3] it was 1.01; in experiment [4], “<=0.05”; in experiment [5] it was 0.601; in experiment [6], 1.01. Moreover, in experiment [7], the IC50 was < 0.1 µM.

As for `Cn1cnnc1CC1(c2cccc(N3Cc4c(cc(CC5CCCO5)cc4C(F)(F)F)C3=O)c2)COC1` (centres undefined), the “fold change (FC)” value in experiment [1] was “>=7.5”; in experiment [2], 1.01; in experiment [3], 2.51; in experiment [4] it was 0.101; in experiment [5] it was 0.801; in experiment [6] it was 1.01. For the same compound, in experiment [7], the half-maximal inhibitory concentration (IC50) is < 0.1 µM.

As for `Cn1cnnc1CC1(c2cccc(NC(=O)c3cc(CN4C[C@@H]5[C@H](C4)C5(F)F)cc(C4CC4)n3)c2)COC1`, the “fold change (FC)” value in experiment [1] is reported as “>=7.5”; in experiment [2], 1.31; in experiment [3], “>=7.5”; in experiment [4], “>=0.201”; in experiment [5] it was “>=1.001”; in experiment [6], 1.31. In addition, the half-maximal inhibitory concentration (IC50) in experiment [7] was < 0.1 µM.

Turning to `CC1C(C(F)(F)F)CCN1Cc1cc2c(c(C(F)(F)F)c1)CN(c1cccc(C3(Cc4nncn4C)COC3)c1)C2=O` (centres undefined), the “fold change (FC)” value in experiment [1] is reported as “>=7.5”; in experiment [2], 1.01; in experiment [3], 5; in experiment [4], 0.051; in experiment [5], “>=1.001”; in experiment [6], 1.31. Moreover, in experiment [7], the half-maximal inhibitory concentration (IC50) is < 0.1 µM.

Regarding `C[C@H](Cc1nncn1C)c1cc(C2CCOC2)nc(N2Cc3c(cccc3C(F)(F)F)C2=O)c1` (some centres undefined), the “fold change (FC)” value in experiment [1] is 1.01; in experiment [2], 1.01; in experiment [3], 1.01; in experiment [4], “<=0.05”; in experiment [5], “<=0.6”; in experiment [6], 1.01. Moreover, the IC50 in experiment [7] is ≤ 1 µM.

Turning to `Cn1cnnc1CC1(c2cccc(N3Cc4c(cc(N5CC(C(F)(F)F)C5)cc4C(F)(F)F)C3=O)c2)COC1`, the “fold change (FC)” value in experiment [1] is “>=7.5”; in experiment [2] it was 1.01; in experiment [3], 2.51; in experiment [4], 0.051; in experiment [5] it was “>=1.001”; in experiment [6], 1.01. The IC50 in experiment [7] is < 0.1 µM.

For the compound `Cc1cc(C(=O)Nc2cccc(C3(Cc4nncn4C)CC(F)(F)C3)c2)nc(C2CC2)n1`, the “fold change (FC)” value in experiment [1] is given as “>=7.5”; in experiment [2], 1.01; in experiment [3], 5; in experiment [4], “>=0.201”; in experiment [5], “>=1.001”; in experiment [6], 1.01. Further, in experiment [7], the IC50 was < 0.1 µM.

As for `CC1CN(c2cc3c(c(C(F)(F)F)c2)CN(c2cccc(C4(Cc5nncn5C)COC4)c2)C3=O)C1C` (centres undefined), the “fold change (FC)” value in experiment [1] came out at 2.51; in experiment [2] it was 1.01; in experiment [3], 1.01; in experiment [4], 0.051; in experiment [5], 0.601; in experiment [6], 1.01. Further, the IC50 in experiment [7] was < 0.1 µM.

`Cn1cnnc1CC1(c2cccc(N3Cc4c(cc(CN5CCCC(F)(F)CC5)cc4C(F)(F)F)C3=O)c2)COC1`: the “fold change (FC)” value was “>=7.5” in experiment [1]; 1.01 in experiment [2]; “>=7.5” in experiment [3]; “>=0.201” in experiment [4]; “>=1.001” in experiment [5]; 1.01 in experiment [6]. For the same compound, the IC50 in experiment [7] is < 0.1 µM.

As for `CN1C[C@H]2CC[C@@H](C1)N2c1cc(C(=O)Nc2cccc(C3(Cc4nncn4C)COC3)c2)nc(C2CC2)n1`, the “fold change (FC)” value in experiment [1] is “>=7.5”; in experiment [2] it was 1.31; in experiment [3], 5; in experiment [4], “>=0.201”; in experiment [5] it was “>=1.001”; in experiment [6], 1.51. For the same compound, in experiment [7], the IC50 was < 0.1 µM.

For `CCOc1cc(N2Cc3c(cc([C@H](C)N4CC[C@H](F)C4)cc3C(F)(F)F)C2=O)cc(C2(Cc3nncn3C)COC2)c1`, the “fold change (FC)” value is reported as “>=7.5” in experiment [1]; 1.31 in experiment [2]; 2.51 in experiment [3]; 0.151 in experiment [4]; “>=1.001” in experiment [5]; 1.51 in experiment [6]. In addition, the IC50 in experiment [7] was < 0.1 µM.

As to `CCOc1cc(N2Cc3c(cc(CN4CC[C@H](F)C4)cc3C(F)(F)F)C2=O)cc(C2(Cc3nncn3C)COC2)c1`, the “fold change (FC)” value in experiment [1] is on record as “>=7.5”; in experiment [2], 1.31; in experiment [3], 5; in experiment [4] it was “>=0.201”; in experiment [5], “>=1.001”; in experiment [6], 1.31. The IC50 in experiment [7] was < 0.1 µM.

As to `CN1CC2CC1CN2c1cc2c(c(C(F)(F)F)c1)CN(c1cccc([C@@](C)(F)C(F)(F)c3nncn3C)c1)C2=O` (single isomer, unassigned; 563), the “fold change (FC)” value came out at 2.51 in experiment [1]; 1.01 in experiment [2]; 1.01 in experiment [3]; 0.051 in experiment [4]; 0.801 in experiment [5]; 1.31 in experiment [6]. Also, the IC50 in experiment [7] is < 0.1 µM.

Take `Cn1cnnc1CC1(c2cccc(N3Cc4c(cc(N5CCOCC5)cc4C(F)(F)F)C3=O)c2)COC1`: the “fold change (FC)” value in experiment [1] was “>=7.5”; in experiment [2] it was 1.31; in experiment [3], 5; in experiment [4] it was 0.101; in experiment [5] it was “>=1.001”; in experiment [6], 1.51. In addition, the IC50 in experiment [7] was < 0.1 µM.

Turning to `Cn1cnnc1CC1(c2cccc(N3Cc4c(cc(C5CCC5)cc4C(F)(F)F)C3=O)c2)COC1`, the “fold change (FC)” value was 2.51 in experiment [1]; 1.01 in experiment [2]; 2.51 in experiment [3]; 0.101 in experiment [4]; 0.801 in experiment [5]; 1.31 in experiment [6]. The IC50 in experiment [7] was < 0.1 µM.

Take `C[C@H]1CN(Cc2cc3c(c(C(F)(F)F)c2)CN(c2cccc(C4(Cc5nncn5C)COC4)c2)C3=O)CCO1`: the “fold change (FC)” value in experiment [1] was “>=7.5”; in experiment [2] it was 1.31; in experiment [3], 5; in experiment [4], “>=0.201”; in experiment [5], 0.601; in experiment [6], 1.31. Moreover, the half-maximal inhibitory concentration (IC50) in experiment [7] was < 0.1 µM.

As for `CC(O)c1cc2c(c(C(F)(F)F)c1)CN(c1cccc(C3(Cc4nncn4C)COC3)c1)C2=O` (centres undefined), the “fold change (FC)” value in experiment [1] is reported as 2.51; in experiment [2], 1.01; in experiment [3], 1.01; in experiment [4], 0.151; in experiment [5], “>=1.001”; in experiment [6] it was 1.01. In addition, in experiment [7], the IC50 was < 0.1 µM.

The IC50 is the midpoint of a concentration-inhibition curve. A low value points to greater potency.

(Values after ChEMBL document CHEMBL5050844 (2019).)
